Each block holds one compound with its values, some of them ahead of it. Activity calls are given as the source filed them. No cut-off for these calls is given here.
Columns and labels:
[1] = Lipophilicity, logD of the compound by shake flask method; format: physicochemical; conditions: octanol/water
[2] = target: T1, Neutral cholesterol ester hydrolase 1 (Mus musculus) (UniProt Q8BLF1); assay: Displacement of FP-rhodamine from KIAA1363 in mouse brain membrane fraction preincubated for 30 mins followed by FP-rhodhamine addition for 10 mins by Activity-Based Protein Profiling analysis; format: cell membranes; conditions: time 40.0 min
T1 sequence (whole entry): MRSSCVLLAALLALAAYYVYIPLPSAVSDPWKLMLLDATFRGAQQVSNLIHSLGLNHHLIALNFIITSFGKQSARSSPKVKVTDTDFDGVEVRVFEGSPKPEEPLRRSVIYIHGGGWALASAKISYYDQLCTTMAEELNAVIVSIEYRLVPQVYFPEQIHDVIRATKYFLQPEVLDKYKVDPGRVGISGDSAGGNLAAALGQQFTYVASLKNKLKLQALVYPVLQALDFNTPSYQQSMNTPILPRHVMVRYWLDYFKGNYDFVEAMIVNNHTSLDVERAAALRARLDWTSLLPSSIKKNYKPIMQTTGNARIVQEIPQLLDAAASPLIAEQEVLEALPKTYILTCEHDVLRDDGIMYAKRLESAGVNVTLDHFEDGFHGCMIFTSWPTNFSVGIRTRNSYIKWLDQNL

[3] = target: T2, Monoacylglycerol lipase ABHD6 (Mus musculus) (UniProt Q8R2Y0); assay: Displacement of FP-rhodamine from ABHD6 in mouse brain membrane fraction preincubated for 30 mins followed by FP-rhodhamine addition for 10 mins by Activity-Based Protein Profiling analysis; format: cell membranes; conditions: time 40.0 min
T2 sequence (whole entry): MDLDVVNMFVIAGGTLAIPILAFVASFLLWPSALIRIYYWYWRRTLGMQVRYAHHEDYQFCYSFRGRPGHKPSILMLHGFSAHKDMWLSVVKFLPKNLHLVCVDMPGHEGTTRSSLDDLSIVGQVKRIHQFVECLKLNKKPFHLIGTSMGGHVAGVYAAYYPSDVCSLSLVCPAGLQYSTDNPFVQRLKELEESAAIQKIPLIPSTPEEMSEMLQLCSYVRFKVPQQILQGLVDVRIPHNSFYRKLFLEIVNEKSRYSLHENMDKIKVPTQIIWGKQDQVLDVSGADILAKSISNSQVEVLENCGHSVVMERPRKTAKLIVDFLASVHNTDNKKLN

[4] = target: T3, Fatty-acid amide hydrolase 1 (Mus musculus) (UniProt O08914); assay: Displacement of FP-rhodamine from FAAH in mouse brain membrane fraction preincubated for 30 mins followed by FP-rhodhamine addition for 10 mins by Activity-Based Protein Profiling analysis; format: cell membranes; conditions: time 40.0 min
T3 sequence (whole entry): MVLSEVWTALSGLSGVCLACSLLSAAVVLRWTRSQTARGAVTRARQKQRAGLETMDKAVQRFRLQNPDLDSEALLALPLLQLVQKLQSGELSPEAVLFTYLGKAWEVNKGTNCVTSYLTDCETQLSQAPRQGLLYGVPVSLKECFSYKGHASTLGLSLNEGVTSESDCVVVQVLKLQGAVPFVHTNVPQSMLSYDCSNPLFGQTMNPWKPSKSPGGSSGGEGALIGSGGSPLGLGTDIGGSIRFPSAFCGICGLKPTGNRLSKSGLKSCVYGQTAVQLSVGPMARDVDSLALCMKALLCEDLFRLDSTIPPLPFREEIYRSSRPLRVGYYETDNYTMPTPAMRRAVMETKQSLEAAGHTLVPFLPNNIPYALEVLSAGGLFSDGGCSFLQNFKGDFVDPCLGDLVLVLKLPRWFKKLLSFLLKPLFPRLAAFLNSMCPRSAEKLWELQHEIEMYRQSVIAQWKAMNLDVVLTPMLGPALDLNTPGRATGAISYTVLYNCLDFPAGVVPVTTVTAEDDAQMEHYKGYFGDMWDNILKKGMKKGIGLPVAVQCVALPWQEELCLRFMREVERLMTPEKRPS

[5] = target: T4, Lysophosphatidylserine lipase ABHD12 (Mus musculus) (UniProt Q99LR1); assay: Displacement of FP-rhodamine from ABHD12 in mouse brain membrane fraction preincubated for 30 mins followed by FP-rhodhamine addition for 10 mins by Activity-Based Protein Profiling analysis; format: cell membranes; conditions: time 40.0 min
T4 sequence (whole entry): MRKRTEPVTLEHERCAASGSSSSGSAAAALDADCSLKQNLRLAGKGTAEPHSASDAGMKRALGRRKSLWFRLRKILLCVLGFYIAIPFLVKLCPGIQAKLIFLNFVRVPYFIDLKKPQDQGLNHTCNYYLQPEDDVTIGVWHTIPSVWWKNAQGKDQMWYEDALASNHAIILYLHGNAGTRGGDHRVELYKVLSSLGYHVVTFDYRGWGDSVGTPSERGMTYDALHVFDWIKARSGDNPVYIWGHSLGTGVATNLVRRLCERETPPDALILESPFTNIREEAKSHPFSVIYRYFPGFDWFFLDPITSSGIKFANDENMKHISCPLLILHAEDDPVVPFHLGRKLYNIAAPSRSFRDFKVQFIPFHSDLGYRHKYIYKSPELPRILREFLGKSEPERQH

[6] = Drug uptake in iv dosed CD-1 mouse lung measured after 60 mins by Ex vivo whole body biodistribution based analysis; format: ADME, organism-based; conditions: 1 h
[7] = Drug uptake in iv dosed CD-1 mouse liver measured after 60 mins by Ex vivo whole body biodistribution based analysis; format: ADME, organism-based; conditions: 1 h
[8] = Drug uptake in mouse brain treated with MAGL inhibitor, JNJ-42226314 at 15 mins post-drug administration by PET imaging based analysis; format: ADME, tissue-based; conditions: in vivo, 0.25 h
[9] = Metabolic stability of the compound in iv dosed Sprague-Dawley rat plasma assessed as parent compound remaining measured after 30 mins by radio-HPLC analysis; format: ADME, organism-based; conditions: read-out: Stability
[10] = Drug uptake in iv dosed rhesus monkey striatum measured after 60 mins by PET imaging based analysis; format: ADME, organism-based, Macaca mulatta; conditions: in vivo, 1 h
[11] = Drug uptake in iv dosed rhesus monkey brain by PET imaging based analysis; format: ADME, organism-based, Macaca mulatta; conditions: in vivo
[12] = Drug uptake in iv dosed rhesus monkey cerebellum by PET imaging based analysis; format: ADME, organism-based, Macaca mulatta; conditions: in vivo
[13] = Drug uptake in iv dosed Sprague-Dawley rat hippocampus measured for 90 mins by PET imaging based analysis; format: ADME, organism-based; conditions: in vivo, 1.5 h
[14] = Drug uptake in iv dosed rhesus monkey cortex by PET imaging based analysis; format: ADME, organism-based, Macaca mulatta; conditions: in vivo
[15] = Drug uptake in iv dosed rhesus monkey striatum by PET imaging based analysis; format: ADME, organism-based, Macaca mulatta; conditions: in vivo
[16] = Drug uptake in iv dosed rhesus monkey hippocampus measured after 60 mins by PET imaging based analysis; format: ADME, organism-based, Macaca mulatta; conditions: in vivo, 1 h
[17] = Drug uptake in iv dosed rhesus monkey pons measured after 60 mins by PET imaging based analysis; format: ADME, organism-based, Macaca mulatta; conditions: in vivo, 1 h
[18] = Drug uptake in iv dosed Sprague-Dawley rat cerebellum measured for 90 mins by PET imaging based analysis; format: ADME, organism-based; conditions: in vivo, 1.5 h
[19] = Drug uptake in iv dosed CD-1 mouse small intestine measured after 60 mins by Ex vivo whole body biodistribution based analysis; format: ADME, organism-based; conditions: 1 h
[20] = Drug uptake in iv dosed Sprague-Dawley rat striatum measured for 90 mins by PET imaging based analysis; format: ADME, organism-based; conditions: in vivo, 1.5 h
[21] = Drug uptake in iv dosed Sprague-Dawley rat pons measured for 90 mins by PET imaging based analysis; format: ADME, organism-based; conditions: in vivo, 1.5 h
[22] = Drug uptake in iv dosed CD-1 mouse heart measured after 60 mins by Ex vivo whole body biodistribution based analysis; format: ADME, organism-based; conditions: 1 h
[23] = Metabolic stability of the compound in iv dosed Sprague-Dawley rat brain assessed as parent compound remaining measured after 60 mins by radio-HPLC analysis; format: ADME, organism-based; conditions: read-out: Stability
[24] = Drug uptake in iv dosed rhesus monkey cerebellum measured after 60 mins by PET imaging based analysis; format: ADME, organism-based, Macaca mulatta; conditions: in vivo, 1 h
[25] = Drug uptake in iv dosed Sprague-Dawley rat cerebral cortex measured for 90 mins by PET imaging based analysis; format: ADME, organism-based; conditions: in vivo, 1.5 h
[26] = Drug uptake in iv dosed rhesus monkey cortex measured after 60 mins by PET imaging based analysis; format: ADME, organism-based, Macaca mulatta; conditions: in vivo, 1 h
[27] = Drug uptake in iv dosed CD-1 mouse kidney measured after 60 mins by Ex vivo whole body biodistribution based analysis; format: ADME, organism-based; conditions: 1 h
[28] = Drug uptake in iv dosed rhesus monkey hippocampus by PET imaging based analysis; format: ADME, organism-based, Macaca mulatta; conditions: in vivo
[29] = Drug uptake in iv dosed CD-1 mouse pancreas measured after 60 mins by Ex vivo whole body biodistribution based analysis; format: ADME, organism-based; conditions: 1 h
[30] = Metabolic stability of the compound in iv dosed Sprague-Dawley rat brain assessed as parent compound remaining measured after 30 mins by radio-HPLC analysis; format: ADME, organism-based; conditions: read-out: Stability
[31] = Metabolic stability of the compound in iv dosed Sprague-Dawley rat plasma assessed as parent compound remaining measured after 60 mins by radio-HPLC analysis; format: ADME, organism-based; conditions: read-out: Stability
[32] = Drug uptake in iv dosed rhesus monkey pons by PET imaging based analysis; format: ADME, organism-based, Macaca mulatta; conditions: in vivo

Structure (SMILES): O=C(c1ccc2c(ccn2-c2ccc(F)cc2)c1)N1CC(N2CCN(C(=O)c3nccs3)CC2)C1
logD [1]: 3.28
inhibition [2]: inactive
inhibition [3]: inactive
inhibition [4]: inactive
inhibition [5]: inactive

Drug uptake [6]: Not Active
Drug uptake [7]: Active
Drug uptake [8]: Not Active
remaining at 0.5 h [9]: 81%
Drug uptake [10]: Not Active
SUVmax [11]: 0.9
Drug uptake [12]: Active
Drug uptake [13]: Active
Drug uptake [14]: Active
Drug uptake [15]: Active
Drug uptake [16]: Not Active
Drug uptake [17]: Not Active
Drug uptake [18]: Active
Drug uptake [19]: Active
Drug uptake [20]: Active
Drug uptake [21]: Active
Drug uptake [22]: Not Active
remaining at 1 h [23]: 94%
Drug uptake [24]: Not Active
SUVmax [25]: 0.8
Drug uptake [26]: Not Active
Drug uptake [27]: Not Active
Drug uptake [28]: Active
Drug uptake [29]: Not Active
remaining at 0.5 h [30]: 97%
remaining at 1 h [31]: 56%
Drug uptake [32]: Active
Structure (SMILES): O=C(c1ccc2c(ccn2-c2ccc([18F])cc2)c1)N1CC(N2CCN(C(=O)c3nccs3)CC2)C1
